Each structure is given as a SMILES string.

Consider four compounds from patent EP4763840A1, “NOVEL QUINAZOLINE-BENZIMIDAZOLE DERIVATIVE OR PHARMACEUTICALLY ACCEPTABLE SALT THEREOF AND USE THEREOF” (Korea University Research and Business Foundation, priority 2023, dated 2025).

Assay [1] concerns JIMT-1. The experiment in a line: MTS assay cell viability in JIMT-1. Particulars: 72 hours; for inhibition of cell viability: JIMT-1 (trastuzumab-resistant), 0, 0.1, 0.5, 1, 2, and 5 µM; for cell viability: JIMT-1, 0, 1, and 5 µM. It is filed as cell-based, human. The protocol: (§1) MDA-MB-231 (Cell seeding numbers: 0.8(M231) x 10^4 cells/wells (confluency ≧ 25%), which is a human triple-negative breast cancer (TNBC) cell line, and JIMT-1 (Cell seeding numbers: 0.8(JIMT) x 10^4 cells/wells (confluency ≧ 25%)), which is a HER2 positive breast cancer (HER2+ BC) cell line, were used in the experiment.
(§2) The above cell lines were cultured in Dulbecco's modified Eagle's medium (DMEM) containing 10% fetal bovine serum (FBS), streptomycin-penicillin (100 U/mL), and Fungizone (0.625 µg/mL) at 5% CO2 and 37°C.
(§3) The human breast cancer cell lines MDA-MB-231 and JIMT-1 were treated with quinazoline-benzimidazole derivatives of Formulas 1-1 to 1-31 at various concentrations of 0, 1, and 5 µM, respectively, for 72 hours, and then cell viability was measured using the MTS assay technique. In the MTS assay, cells were attached to a 96-well plate for 24 hours, treated with the quinazoline-benzimidazole derivative for 72 hours, developed with MTS (3-(4,5-dimethylthiazol-2-yl)-5-(3-carboxymethoxyphenyl)-2-(4-sulfophenyl)-2H-tetrazolium) for 4 hours, and then absorbance was measured at 490 nm using a Spectramax Plus384 microplate analyzer.
(§4) In addition, after treatment with compounds 1-15, 1-16, 1-19, and 1-22 at a concentration of 5 µM for 48 hours in SKBR3 and JIMT-1 cell lines, morphological changes of the cells were observed using an optical microscope, and the results are shown in B of FIG. 4.

Assay [2] has as its system SKBR3. The experiment in a line: Cell morphology by optical microscope in SKBR3. The class given is cell-based. Particulars: 5 µM, 48 hours. The protocol: as §4
Assay [3] deals with SKBR3. Briefly: MTS assay cell viability in SKBR3. The class given is cell-based. Particulars: SKBR3 (trastuzumab-sensitive), 0, 0.1, 0.5, 1, 2, and 5 µM, 72 hours. A general note: Formazan colour is commonly taken as a measure of viable cells.
In the next assay the test system is MDA-MB-231. The experiment in a line: MTS assay cell viability screening in MDA-MB-231. To be noted: 0, 1, and 5 µM, 72 hours. It is filed as cell-based, human. The protocol:
as §1, §2, §3

Assay [4] deals with JIMT-1. The experiment in a line: Cell morphology by optical microscope in JIMT-1. The class given is cell-based, human. To be noted: 5 µM, 48 hours. The protocol: as §4
The subject of assay [5] is tubulin protein. The experiment in a line: Western blot of apoptosis-related proteins and tubulin in SKBR3. It is filed as cell-based. Particulars: 5 µM, 48 hours. The protocol:
(§5) Subsequently, after treatment with the compounds of Formulas 1-16 and 1-19 at a concentration of 5 µM for 48 hours in SKBR3 and JIMT-1 cell lines, the degree of apoptosis was measured by flow cytometry through Annexin V/PI staining, and the results are shown in A of FIG. 5. […] After treatment in the same manner as above, expression of apoptosis-related proteins and degradation of tubulin protein were confirmed by western blot, and the results are shown in B of FIG. 5.
Background: Immunoblotting shows a protein as a band on a membrane.

Assay [6] relates to colorectal cancer cell line HCT116. Briefly: MTS assay cell viability in HCT116. It is filed as cell-based. Particulars: 0, 0.1, 0.5, 1, 5, and 10 µM, 72 hours.
Assay [7] deals with hepatic cancer cell line HepG2. The experiment in a line: MTS assay cell viability in HepG2. Particulars: 0, 0.1, 0.5, 1, 5, and 10 µM, 72 hours. The class given is cell-based.
The test system of assay [8] is HER2, HER family members (HER3 and EGFR), and AKT and MEK. Briefly: Western blot of HER2 signaling proteins in JIMT-1. The class given is cell-based, human. Particulars: 5 µM, 24, 48, and 72 hours. The protocol: Then, after treatment with the compounds of Formulas 1-16 and 1-19 at a concentration of 5 µM for 24, 48, and 72 hours in a JIMT-1 cell line, protein expression and phosphorylation of HER2, HER family members (HER3 and EGFR), and AKT and MEK of downstream signaling mechanism were confirmed by western blot, and the results are shown in FIG. 7. […] Thereby, it was confirmed that the quinazoline-benzimidazole derivatives of the disclosure have a tyrosine kinase inhibitory effect on HER2 as in the above-described design objective.

The test system of assay [9] is JIMT-1. The experiment in a line: Cell cycle analysis by propidium iodide flow cytometry in JIMT-1. To be noted: 5 µM, 48 hours, PI staining. The class given is cell-based, human. The procedure: In order to confirm this, the following experiments were performed. After treatment with the compounds of Formulas 1-16 and 1-19 at a concentration of 5 µM for 48 hours in a trastuzumab-resistant HER2-positive breast cancer cell JIMT-1, the cells were stained with propidium iodide (PI), and the cell cycle was analyzed according to DNA content using flow cytometry, and the results are shown in A of FIG. 6.
(A flow cytometer gives signals particle by particle.)

Assay [10] concerns prostate cancer cell line Du145. The experiment in a line: MTS assay cell viability in Du145. It is filed as cell-based. Particulars: 0, 0.1, 0.5, 1, 5, and 10 µM, 72 hours.
The subject of assay [11] is ovarian cancer cell line SKOV3. The experiment in a line: MTS assay cell viability in SKOV3. To be noted: 0, 0.1, 0.5, 1, 5, and 10 µM, 72 hours. The class given is cell-based.
In assay [12] the test system is JIMT-1. Briefly: Annexin V/PI staining flow cytometry in JIMT-1. It is filed as cell-based, human. Particulars: 5 µM, 48 hours. The protocol:
as §5

In assay [13] the test system is hematological cancer cell line HL-60. The experiment in a line: MTS assay cell viability in HL-60. It is filed as cell-based. To be noted: 0, 0.1, 0.5, 1, 5, and 10 µM, 72 hours.
For assay [14], the system named is SKBR3. Briefly: Annexin V/PI staining flow cytometry in SKBR3. The class given is cell-based. To be noted: 5 µM, 48 hours. The protocol:
as §5

Assay [15] concerns tubulin protein. Briefly: Western blot of apoptosis-related proteins and tubulin in JIMT-1. It is filed as cell-based, human. Particulars: 5 µM, 48 hours. The procedure: as §5
Assay [16] relates to lung cancer cell line H1299. Briefly: MTS assay cell viability in H1299. The class given is cell-based. Particulars: 0, 0.1, 0.5, 1, 5, and 10 µM, 72 hours.
Another assay relates to phospho-Histone H3. Briefly: phospho-Histone H3 immunocytochemistry in JIMT-1. It is filed as cell-based, human. To be noted: 5 µM, 24 hours. The protocol:
In addition, after treatment with compounds 1-16 and 1-19 at a concentration of 5 µM for 24 hours in a JIMT-1 cell line, expression of phospho-Histone H3, a marker of mitosis, was confirmed by immunocytochemistry, and the results are shown in B of FIG. 6.

Take `O=c1c2cc(-c3ccc4nc(-c5ccc(Cl)cc5)[nH]c4c3)ccc2ncn1CCN1CCCCC1` [Formula 1-15, 6-(2-(4-Chlorophenyl)-1H-benzo[d]imidazol-6-yl)-3-(2-(piperidin-1-yl)ethyl)quinazolin-4(3H)-one]: the “inhibition of cell viability” value with JIMT-1 [1] and in the assay on SKBR3 [3] was “concentration-dependent inhibition of cell viability” throughout. In addition, the cell viability entry in the assay on JIMT-1 [1] and in the assay with MDA-MB-231 was “excellent activity” in each case. Moreover, the “morphological changes of the cells” value with SKBR3 [2] and with JIMT-1 [4] was “typical apoptotic morphology” in each case.

For the compound `O=c1c2cc(-c3ccc4nc(-c5ccc(F)c(Cl)c5)[nH]c4c3)ccc2ncn1CCN1CCCCC1` [Formula 1-16], the “inhibition of cell viability” value in the assay with JIMT-1 [1] and with SKBR3 [3] was “concentration-dependent inhibition of cell viability” throughout. The cell viability entry is on record as “excellent activity” in the assay on JIMT-1 [1]; “effectively inhibited” in assay [6]; “effectively inhibited” in [7]; “effectively inhibited” in assay [10]; “excellent activity” in the assay with MDA-MB-231; “effectively inhibited” in assay [11]. The cell viability result in [13] and in [16] was “effectively inhibited” each time. Moreover, the “expression of apoptosis-related proteins and degradation of tubulin protein” value in the assay with tubulin protein [5] and in the assay with tubulin protein [15] was “apoptosis effect by inhibiting tubulin polymerization” in each case. For the same compound, in assay [8], the “activities of HER2, p95HER2, HER3, EGFR, AKT, and MEK” value is on record as “effectively inhibited”. In assay [8], the “protein expression and phosphorylation of HER2, HER family members (HER3 and EGFR), and AKT and MEK” value is given as “decreased in a time-dependent manner”. Besides, the “cell cycle according to DNA content” value with JIMT-1 [9] is on record as “G2/M phase cell cycle arrest”. Also, the “morphological changes of the cells” value in the assay with SKBR3 [2] and in the assay with JIMT-1 [4] was “typical apoptotic morphology” in each case. The degree of apoptosis entry in the assay on JIMT-1 [12] is “effectively induced early and late apoptosis”; in the assay with SKBR3 [14] it was “effectively induced early and late apoptosis”. The “expression of phospho-Histone H3, a marker of mitosis” value in the assay with phospho-Histone H3 is “increased abnormal expression of a phospho-Histone H3 protein”.

In the case of `Cc1ccc(-c2nc3ccc(-c4ccc5ncn(CCN6CCCCC6)c(=O)c5c4)cc3[nH]2)cc1` [Formula 1-19], the “inhibition of cell viability” value in the assay on JIMT-1 [1] and with SKBR3 [3] was “concentration-dependent inhibition of cell viability” each time. The cell viability result in the assay on JIMT-1 [1] is “excellent activity”; in [6], “effectively inhibited”; in assay [7], “effectively inhibited”; in [10], “effectively inhibited”; in the assay with MDA-MB-231, “excellent activity”; in [11] it was “effectively inhibited”. The cell viability entry in assay [13] and in assay [16] was “effectively inhibited” throughout. The “expression of apoptosis-related proteins and degradation of tubulin protein” value with tubulin protein [5] and in the assay on tubulin protein [15] was “apoptosis effect by inhibiting tubulin polymerization” each time. For the same compound, the “activities of HER2, p95HER2, HER3, EGFR, AKT, and MEK” value in [8] is “effectively inhibited”. In addition, in assay [8], the “protein expression and phosphorylation of HER2, HER family members (HER3 and EGFR), and AKT and MEK” value is “decreased in a time-dependent manner”. Besides, the “cell cycle according to DNA content” value in the assay on JIMT-1 [9] is given as “G2/M phase cell cycle arrest”. The “morphological changes of the cells” value in the assay on SKBR3 [2] and with JIMT-1 [4] was “typical apoptotic morphology” in each case. The degree of apoptosis result was “effectively induced early and late apoptosis” in the assay on JIMT-1 [12]; “effectively induced early and late apoptosis” in the assay with SKBR3 [14]. Also, the “expression of phospho-Histone H3, a marker of mitosis” value in the assay on phospho-Histone H3 is on record as “increased abnormal expression of a phospho-Histone H3 protein”.

In the case of `O=c1c2cc(-c3ccc4nc(-c5ccc(Cl)cn5)[nH]c4c3)ccc2ncn1CCN1CCCCC1` [Formula 1-22, 6-(2-(5-Chloropyridin-2-yl)-1H-benzo[d]imidazol-6-yl)-3-(2-(piperidin-1-yl)ethyl)quinazolin-4(3H)-one], the “inhibition of cell viability” value in the assay on JIMT-1 [1] and in the assay on SKBR3 [3] was “concentration-dependent inhibition of cell viability” each time. Further, the cell viability entry with JIMT-1 [1] and in the assay with MDA-MB-231 was “excellent activity” throughout. For the same compound, the “morphological changes of the cells” value in the assay with SKBR3 [2] and in the assay on JIMT-1 [4] was “typical apoptotic morphology” in each case.
